Patent US9096591B2, “Tetracyclic compounds” (Medivation Technologies, Inc., priority 2007, dated 2015)

How the values were obtained:
[1] = molecular target: T1, human recombinant histamine H1 receptor (Homo sapiens, UniProt P35367); assay: Histamine H1 radioligand binding ([3H]Pyrilamine); conditions: percent inhibition of specific binding; screened at 1 μM; read-out: Inhibition of ligand binding, Hist. H1
T1 construct: expressed in transfected cells; host or cells: CHO cells
Summary of the method: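 CHO-expressed receptor in modified Tris-HCl buffer (50 mM, pH 7.4; 2 mM MgCl2, 100 mM NaCl, 250 mM sucrose); bound ligand measured after filtration and washing.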

[2] = molecular target: T2, human recombinant adrenergic α1D receptor (Homo sapiens, UniProt P25100); assay: Adrenergic α1D radioligand binding ([3H]Prozosin); set-up: Inhibition of ligand binding, Adren. alpha1D: concentration or dose not given beside the values; conditions: percent inhibition of specific binding
T2 construct: expressed in transfected cells; host or cells: HEK-293 cells
T2 sequence (P25100 1-572): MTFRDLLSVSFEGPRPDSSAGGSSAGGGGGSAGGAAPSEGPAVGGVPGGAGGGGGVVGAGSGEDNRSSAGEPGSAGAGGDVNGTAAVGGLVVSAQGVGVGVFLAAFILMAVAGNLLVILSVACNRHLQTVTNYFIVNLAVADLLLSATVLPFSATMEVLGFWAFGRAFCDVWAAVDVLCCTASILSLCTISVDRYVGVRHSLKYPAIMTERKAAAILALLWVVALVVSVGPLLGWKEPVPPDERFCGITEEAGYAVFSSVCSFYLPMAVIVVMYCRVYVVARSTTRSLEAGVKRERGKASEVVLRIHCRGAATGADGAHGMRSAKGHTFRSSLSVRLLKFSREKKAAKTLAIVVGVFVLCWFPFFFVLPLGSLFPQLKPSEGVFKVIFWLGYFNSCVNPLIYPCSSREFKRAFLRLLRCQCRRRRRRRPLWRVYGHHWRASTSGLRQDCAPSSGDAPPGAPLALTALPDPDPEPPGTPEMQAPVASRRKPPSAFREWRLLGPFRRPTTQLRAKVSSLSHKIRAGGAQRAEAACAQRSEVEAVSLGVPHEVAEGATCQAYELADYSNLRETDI
Method: Compounds of invention were incubated with 0.6 nM [^3H]Prozosin for 60 minutes at 25° C. Non-specific binding was estimated in the presence of 10 μM phentolamine. Receptor proteins were filtered and washed, the filters were then counted to determine [^3H]Prozosin specifically bound. […] Biochemical assay results are presented as the percent inhibition of specific binding in Table 6.

[3] = molecular target: T3, human recombinant adrenergic α2A receptor (Homo sapiens, UniProt P08913); assay: Adrenergic α2A radioligand binding ([3H]MK-912); set-up: Inhibition of ligand binding, Adren. alpha2A: concentration or dose not given beside the values; conditions: percent inhibition of specific binding
T3 construct: expressed in transfected cells; host or cells: insect Sf9 cells
T3 sequence (P08913 1-465): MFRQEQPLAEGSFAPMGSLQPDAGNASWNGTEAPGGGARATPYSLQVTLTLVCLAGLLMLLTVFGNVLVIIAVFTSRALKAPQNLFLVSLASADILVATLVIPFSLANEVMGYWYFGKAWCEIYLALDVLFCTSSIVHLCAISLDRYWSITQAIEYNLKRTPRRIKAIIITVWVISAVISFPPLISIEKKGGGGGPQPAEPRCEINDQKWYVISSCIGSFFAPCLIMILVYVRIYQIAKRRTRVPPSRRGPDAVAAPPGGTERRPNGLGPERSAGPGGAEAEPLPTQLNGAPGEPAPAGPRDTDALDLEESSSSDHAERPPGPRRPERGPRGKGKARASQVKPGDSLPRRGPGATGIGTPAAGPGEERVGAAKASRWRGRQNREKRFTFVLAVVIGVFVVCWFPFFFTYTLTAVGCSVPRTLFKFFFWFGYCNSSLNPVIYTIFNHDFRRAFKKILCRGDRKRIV
Summary of the method: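 Membranes from Sf9 cells expressing the receptor were incubated with 1 nM [3H]MK-912 for 60 minutes at 25° C in 50 mM Tris-HCl pH 7.4, 12.5 mM MgCl2, 2 mM EDTA. 10 μM WB-4101 defined non-specific binding. Values are percent inhibition of specific bound radioactivity after filtration.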

T1 sequence (P35367 whole entry): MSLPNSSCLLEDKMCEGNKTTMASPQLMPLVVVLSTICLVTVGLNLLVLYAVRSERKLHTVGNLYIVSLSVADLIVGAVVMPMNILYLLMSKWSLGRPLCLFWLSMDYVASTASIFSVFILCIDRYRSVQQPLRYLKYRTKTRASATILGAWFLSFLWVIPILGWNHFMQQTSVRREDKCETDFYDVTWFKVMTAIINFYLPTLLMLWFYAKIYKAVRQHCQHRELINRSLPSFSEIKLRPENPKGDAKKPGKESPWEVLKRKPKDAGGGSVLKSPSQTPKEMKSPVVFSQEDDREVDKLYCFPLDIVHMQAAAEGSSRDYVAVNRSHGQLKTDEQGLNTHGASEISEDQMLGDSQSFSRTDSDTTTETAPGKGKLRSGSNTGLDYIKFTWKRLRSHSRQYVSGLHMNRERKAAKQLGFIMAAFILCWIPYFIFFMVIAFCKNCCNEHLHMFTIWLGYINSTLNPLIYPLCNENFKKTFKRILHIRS

Row | Compound | inhibition at 1 µM [1] | Inhibition of ligand binding, Adren. alpha1D [2] | Inhibition of ligand binding, Adren. alpha2A [3]
1 | Cc1ccc2c(c1)c1c(n2CCc2ccccc2)CCNC1 [Compound 228, 2,3,4,5-tetrahydro-8-methyl-5-phenethyl-1H-pyrido[4,3-b]indole] | 81% | 76% | 87%
2 | CC(C)N1CCN(C(=O)Cn2c3c(c4cc(Cl)ccc42)CN(C)CC3)CC1 [Compound 248] | 85% | 26% | 27%
3 | CN1CCc2c(c3cc(F)ccc3n2CCc2ccc(Cl)cc2)C1 [Compound 249] | 100% | 65% | 97%
4 | Cc1ccc2c(c1)c1c(n2CC(=O)N2CCC(C)CC2)CCN(C)C1 [Compound 251] | 55% | 14% | 2%
5 | CN1CCc2c(c3cc(F)ccc3n2CCc2ccc(F)cc2)C1 [Compound 253] | 97% | 81% | 93%
6 | Cc1ccc(CCn2c3c(c4cc(C(=O)O)ccc42)CN(C)CC3)cn1 [Compound 256, 2-Methyl-5-(2-(6-methylpyridin-3-yl)ethyl)-2,3,4,5-tetrahydro-1H-pyrido[4,3-b]indole-8-carboxylic acid] | -1% | −10% | −7%
7 | Cc1ccc2c(c1)c1c(n2CC(=O)N2CCCC2)CCN(C)C1 [Compound 257, 2-(1,2,3,4-tetrahydro-2,8-dimethylpyrido[4,3-b]indol-5-yl)-1-(pyrrolidin-1-yl)ethanone] | 64% | 3% | −4%
8 | Cc1ccc2c(c1)c1c(n2CCc2ccc(C(=O)O)nc2)CCNC1 [Compound 262] | 81% | 3% | 8%
9 | Cc1ccc(CCn2c3c(c4cc(CO)ccc42)CN(C)CC3)cn1 [Compound 263] | 95% | 39% | 34%
10 | CN1CCc2c(c3cc(Cl)cc(F)c3n2CCc2ccc(C(F)(F)F)nc2)C1 [Compound 338, 8-chloro-6-fluoro-5-(2-(6-(trifluoromethyl)pyridin-3-yl)ethyl)-2,3,4,5-tetrahydro-2-methyl-1H-pyrido[4,3-b]indole] | 96% | 83% | 99%
11 | CN1CCc2c(c3cc(OC(F)(F)F)ccc3n2CCc2ccc(C(F)(F)F)nc2)C1 [Compound 341, 5-(2-(6-(trifluoromethyl)pyridin-3-yl)ethyl)-2,3,4,5-tetrahydro-2-methyl-8-(trifluoromethoxy)-1H-pyrido[4,3-b]indole] | 28% | −3% | 36%
12 | CC(C)c1ccc2c(c1)c1c(n2CCc2ccc(C(F)(F)F)nc2)CCN(C)C1 [Compound 342, 8-Isopropyl-2-methyl-5-[2-(6-trifluoromethyl-pyridin-3-yl)-ethyl]-2,3,4,5-tetrahydro-1H-pyrido[4,3-b]indole] | 80% | 91% | 94%
13 | CN1CCc2c(c3cc(Cl)c(F)cc3n2CCc2ccc(C(F)(F)F)nc2)C1 [Compound 343] | 98% | 61% | 90%
14 | CN1CCc2c(c3cc(Cl)ccc3n2CCn2cccc2)C1 [Compound 349, 8-Chloro-2-methyl-5-(2-pyrrol-1-yl-ethyl)-2,3,4,5-tetrahydro-1H-pyrido[4,3-b]indole] | 111% | 100% | 96%
15 | OC1CCC(N2CCc3c(c4cc(Cl)ccc4n3CCc3ccc(C(F)(F)F)nc3)C2)C1 (stereo not drawn) [Compound 351, 3-(8-chloro-5-(2-(6-(trifluoromethyl)pyridin-3-yl)ethyl)-3,4-dihydro-1H-pyrido[4,3-b]indol-2(5H)-yl)cyclopentanol] | 74% | 61% | 8%
16 | Cc1ccc2c(n1)c1c(n2CCc2ccc(C(F)(F)F)nc2)CCN(C)C1 [Compound 353, 9-aza-2,8-dimethyl-5-(2-(6-(trifluoromethyl)pyridin-3-yl)ethyl)-2,3,4,5-tetrahydro-1H-pyrido[4,3-b]indole] | 10% | 11% | 8%
17 | CCc1ccc2c(c1)c1c(n2CCc2ccc(C)nc2)CCN(C)C1 [Compound 357, 8-Ethyl-2-methyl-5-[2-(6-methyl-pyridin-3-yl)-ethyl]-2,3,4,5-tetrahydro-1H-pyrido[4,3-b]indole] | 101% | 89% | 91%
18 | CCc1ccc2c(c1)c1c(n2CCc2ccc(C(F)(F)F)nc2)CCN(C)C1 [Compound 358, 8-Ethyl-2-methyl-5-[2-(6-trifluoromethyl-pyridin-3-yl)-ethyl]-2,3,4,5-tetrahydro-1H-pyrido[4,3-b]indole] | 94% | 95% | 96%
19 | CCc1ccc(CCn2c3c(c4cc(C)ccc42)CN(C)CC3)cn1 [Compound 359, 5-[2-(6-Ethyl-pyridin-3-yl)-ethyl]-2,8-dimethyl-2,3,4,5-tetrahydro-1H-pyrido[4,3-b]indole] | 99% | 95% | 77%
20 | Cc1ccc2c(c1)c1c(n2CCc2ccc(C(C)C)nc2)CCN(C)C1 [Compound 360, 5-[2-(6-Isopropyl-pyridin-3-yl)-ethyl]-2,8-dimethyl-2,3,4,5-tetrahydro-1H-pyrido[4,3-b]indole] | 101% | 96% | 101%
21 | Cc1ncc(CCn2c3c(c4cc(Cl)ccc42)CN(C)CC3)cn1 [Compound 361, 8-Chloro-2-methyl-5-[2-(2-methyl-pyrimidin-5-yl)-ethyl]-2,3,4,5-tetrahydro-1H-pyrido[4,3-b]indole] | 106% | 87% | 30%
22 | CCc1ccc2c(c1)c1c(n2CCc2cnc(C)nc2)CCN(C)C1 [Compound 362, 8-Ethyl-2-methyl-5-[2-(2-methyl-pyrimidin-5-yl)-ethyl]-2,3,4,5-tetrahydro-1H-pyrido[4,3-b]indole] | 98% | 76% | 14%
23 | Cc1cnc(CCn2c3c(c4cc(Cl)ccc42)CN(C)CC3)cn1 [Compound 363, 8-Chloro-2-methyl-5-[2-(5-methyl-pyrazin-2-yl)-ethyl]-2,3,4,5-tetrahydro-1H-pyrido[4,3-b]indole] | 95% | 73% | 59%
24 | CCc1ccc2c(c1)c1c(n2CCc2cnc(C)cn2)CCN(C)C1 [Compound 364, 8-Ethyl-2-methyl-5-[2-(5-methyl-pyrazin-2-yl)-ethyl]-2,3,4,5-tetrahydro-1H-pyrido[4,3-b]indole] | 87% | 77% | 65%
